Patent publication US20260028354A1, “TETRAHYDRONAPHTHALENE DERIVATIVES AS ESTROGEN RECEPTOR DEGRADERS” (REGENT OF THE UNIVERSITY OF MICHIGAN, priority 2022, published 2026)
Where a name gives a salt, the structure may show the parent alone. Read-outs that look alike come from different tables or passages of the source.

Experiments:
[1] = target: ER in MCF-7 cells (Homo sapiens (Human), UniProt P03372); test: In-cell Western (ICW) ER degradation assay in MCF-7 cells; format: cell-based; settings: for DC50: MCF-7, ER degradation, read-out: MCF7 DC50
ER in MCF-7 cells, sequence (P03372 whole entry): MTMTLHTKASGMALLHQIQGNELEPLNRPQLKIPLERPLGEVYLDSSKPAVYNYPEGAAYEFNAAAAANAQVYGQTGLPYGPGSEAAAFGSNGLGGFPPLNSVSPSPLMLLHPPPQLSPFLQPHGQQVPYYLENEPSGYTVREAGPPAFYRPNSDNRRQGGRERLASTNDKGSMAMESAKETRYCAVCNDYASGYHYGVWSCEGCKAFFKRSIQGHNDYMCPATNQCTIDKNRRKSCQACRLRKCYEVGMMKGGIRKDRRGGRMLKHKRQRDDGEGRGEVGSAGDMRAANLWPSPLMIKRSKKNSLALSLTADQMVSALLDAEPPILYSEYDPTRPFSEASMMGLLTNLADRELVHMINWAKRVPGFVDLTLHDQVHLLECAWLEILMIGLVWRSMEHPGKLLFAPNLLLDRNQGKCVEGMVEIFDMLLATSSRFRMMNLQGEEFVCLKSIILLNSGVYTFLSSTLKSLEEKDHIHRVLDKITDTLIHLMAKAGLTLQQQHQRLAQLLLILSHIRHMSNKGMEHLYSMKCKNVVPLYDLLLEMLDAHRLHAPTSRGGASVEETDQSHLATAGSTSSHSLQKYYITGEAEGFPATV
Excerpt: (§1) In-cell Western (ICW) assays in MCF-7 and T47D cell lines.
(§2) Day 3: After 16 hrs of compounds treatment, cells were fixed by 4% PFA and permeabilized with elution buffer (0.1% Triton X-100 in 1% PBS Solution). Subsequently, cells were blocked with Intercept (PBS) Blocking Buffer (Li-COR, Odyssey Blocking Buffer), and were stained with ER (1:500, Cell signaling) primary antibody for overnight at cold room.
(§3) Day 4: Remove the buffer, add IRDye 800CW Goat anti-Rabbit IgG Secondary Antibody (1:2000) and CellTag 700 Stain (1:500) in Intercept (PBS) Blocking Buffer. Finally, cell plate is placed in incubator to dry. Image and signal were captured on Odyssey® DLx Imaging System.

[2] = target: ER in T47D cells (Homo sapiens (Human), UniProt P03372); test: In-cell Western (ICW) ER degradation assay in T47D cells; format: cell-based; settings: for DC50: ER degradation
ER in T47D cells, sequence (P03372 whole entry): as above
Excerpt: as §1, §2, §3

[3] = MCF7, read-out: MCF7 Dmax, MCF-7, maximal ER degradation, 16 hrs treatment
[4] = maximal ER degradation, 16 hrs treatment, read-out: T47D Dmax
[5] = MCF7, MCF-7, maximal ER degradation, 16 hrs treatment, read-out: MCF7 Dmax
[6] = read-out: T47D Dmax, T47D, maximal ER degradation, 16 hrs treatment

SMILES	Dmax [1, 3] [%]	DC50 ([1]; 16 hrs treatment) [nM]	DC50 ([2]; 16 hrs treatment) [nM]	Dmax [2, 4] [%]	Dmax [1, 5] [%]	Dmax [2, 6] [%]	T47D Dmax ([2]; maximal ER degradation, 16 hrs treatment)
COc1cc(N2CCC(CN3CCN4c5cc6c(cc5OC[C@@H]4C3)C(=O)N([C@H]3CCC(=O)NC3=O)C6)CC2)ccc1[C@H]1c2ccc(O)cc2CC[C@H]1c1ccccc1 (single isomer, unassigned) [Compound A21]	50 to 75	10 to 100	1 to 10	50 to 75			
COc1cc(N2CCC3(CC2)CC(CN2CCC(c4ccc(N[C@@H]5CCC(=O)NC5=O)cc4)CC2)C3)c(F)cc1[C@H]1c2ccc(O)cc2CC[C@H]1c1ccccc1 (single isomer, unassigned) [Compound A46]		10 to 100	10 to 100	25 to 50	25 to 50		
COc1cc(N2CCC(CN3CCC(c4ccc(N[C@@H]5CCC(=O)NC5=O)cc4F)CC3)CC2)ccc1[C@@H]1c2ccc(O)cc2CC[C@@H]1c1ccccc1 (single isomer, unassigned) [Compound A85]		< 1	< 1	50 to 75	25 to 50		
COc1cc(N2CCC(CN3CCC(c4ccc(N[C@H]5CCC(=O)NC5=O)cc4)CC3)CC2)ccc1[C@@H]1c2ccc(O)cc2CC[C@@H]1c1ccccc1 (single isomer, unassigned) [Compound A86]		1 to 10	10 to 100	25 to 50	< 25		
COc1cc(N2CCC(CN3CCC(c4ccc(N[C@@H]5CCC(=O)NC5=O)cc4)CC3)CC2)ccc1[C@@H]1c2ccc(O)cc2CC[C@@H]1c1ccccc1 (single isomer, unassigned) [Compound A87]		< 1	< 1	25 to 50	25 to 50		
COc1cc(N2CCC3(CC2)CC(CN2CCC(c4ccc(N[C@H]5CCC(=O)NC5=O)cc4)CC2)C3)ccc1[C@@H]1c2ccc(O)cc2CC[C@@H]1c1ccccc1 (single isomer, unassigned) [Compound A96]		< 1	< 1	50 to 75	50 to 75		
COc1cc([C@H]2c3ccc(O)cc3CC[C@H]2c2ccccc2)c(F)cc1N1CCC2(CC1)CC(CN1CCN3c4ccc5c(c4OC[C@H]3C1)CN([C@H]1CCC(=O)NC1=O)C5=O)C2 (single isomer, unassigned) [Compound A102]			1 to 10			> 75	
COc1cc([C@@H]2c3ccc(O)cc3CC[C@@H]2c2ccccc2)c(F)cc1N1CCC2(CC1)CC(CN1CCN3c4ccc5c(c4OC[C@H]3C1)CN([C@H]1CCC(=O)NC1=O)C5=O)C2 (single isomer, unassigned) [Compound A103]			10 to 100			50 to 75	
COc1cc(N2CCC3(CC2)CC(CN2CCC(c4ccc(N[C@H]5CCC(=O)NC5=O)cc4F)CC2)C3)ccc1[C@@H]1c2ccc(O)cc2CC[C@@H]1c1ccccc1 (single isomer, unassigned) [Compound A105]		< 1	1 to 10	50 to 75	50 to 75		
COc1cc(N2CCC3(CC2)CC(CN2CCC(c4ccc(N[C@@H]5CCC(=O)NC5=O)cc4)CC2)C3)ccc1[C@@H]1c2ccc(O)cc2CC[C@@H]1c1ccccc1 (single isomer, unassigned) [Compound A110]		< 1	< 1	50 to 75	50 to 75		
O=C1CC[C@H](NC(=O)c2ccc3c(n2)OC[C@H]2CN(CC4CC5(CCN(c6ccc([C@H]7c8ccc(O)cc8CC[C@H]7c7ccccc7)cn6)CC5)C4)CCN32)C(=O)N1 (single isomer, unassigned) [Compound A114]			> 100	< 25			
O=C1CC[C@H](NC(=O)c2ccc3c(n2)OC[C@H]2CN(CC4CC5(CCN(c6ccc([C@@H]7c8ccc(O)cc8CC[C@@H]7c7ccccc7)cn6)CC5)C4)CCN32)C(=O)N1 (single isomer, unassigned) [Compound A115]			1 to 10	> 75			
O=C1CC[C@H](N2Cc3c(ccc4c3OC[C@H]3CN(CC5CCC6(CC5)CN(c5ccc([C@@H]7c8ccc(O)cc8CC[C@@H]7c7ccccc7)cn5)C6)CCN43)C2=O)C(=O)N1 (single isomer, unassigned) [Compound A123, (S)-3-((R)-7-((2-(5-((1S,2S)-6-hydroxy-2-phenyl-1,2,3,4-tetrahydronaphthalen-1-yl)pyridin-2-yl)-2-azaspiro[3.5]nonan-7-yl)methyl)-1-oxo-1,3,5,5a,6,7,8,9-octahydro-2H-pyrazino[1′,2′: 4,5][1,4]oxazino[2,3-e]isoindol-2-yl)piperidine-2,6-dione]		< 1	< 1				
O=C1CC[C@H](N2Cc3c(ccc4c3OC[C@H]3CN(CC5CC6(CCN(c7ncc([C@@H]8c9ccc(O)cc9CC[C@@H]8c8ccccc8)cn7)CC6)C5)CCN43)C2=O)C(=O)N1 (single isomer, unassigned) [Compound A140]		< 1	1 to 10	> 75	> 75		
O=C1CC[C@H](N2Cc3c(ccc4c3OC[C@H]3CN(CC5CC6(CCN(c7ccc([C@H]8c9ccc(O)cc9CC[C@H]8c8ccccc8)cc7F)CC6)C5)CCN43)C2=O)C(=O)N1 (single isomer, unassigned) [Compound A147]		< 1	1 to 10	> 75	> 75		
O=C1CC[C@@H](N2Cc3cc4c(cc3C2=O)OC[C@H]2CN(CC3COC5(C3)CN(c3ccc([C@H]6c7ccc(O)cc7CC[C@H]6c6ccccc6)cc3)C5)CCN42)C(=O)N1 (stereo in doubt) [Compound A8, (3R)-3-((4aR)-3-((2-(4-((1S,2R)-6-hydroxy-2-phenyl-1,2,3,4-tetrahydronaphthalen-1-yl)phenyl)-5-oxa-2-azaspiro[3,4]octan-7-yl)methyl)-8-oxo-1,2,3,4,4a,5,8,10-octahydro-9H-pyrazino[1′,2′: 4,5][1,4]oxazino[2,3-f]isoindol-9-yl)piperidine-2,6-dione]	> 75	< 1	< 1				A (“A”: >=75%)
COc1cc(N2CCC(CN3CCC(c4ccc(N[C@@H]5CCC(=O)NC5=O)cc4F)CC3)CC2)ccc1[C@H]1c2ccc(O)cc2CC[C@H]1c1ccccc1 (stereo in doubt) [Compound A84, (R)-3-((3-fluoro-4-(1-((1-(4-((1R,2R)-6-hydroxy-2-phenyl-1,2,3,4-tetrahydronaphthalen-1-yl)-3-methoxyphenyl)piperidin-4-yl)methyl)piperidin-4-yl)-phenyl)amino)piperidine-2,6-dione formate]		< 1	10 to 100	25 to 50	< 25		
O=C1CC[C@H](N2Cc3cc4c(cc3C2=O)OCC42CCN(C[C@H]3COC4(CCN(c5ccc([C@H]6c7ccc(O)cc7CC[C@H]6c6ccccc6)cc5)CC4)C3)CC2)C(=O)N1 [Compound A22, (S)-3-(1′-(((S)-8-(4-((1S,2R)-6-hydroxy-2-phenyl-1,2,3,4-tetrahydronaphthalen-1-yl)-phenyl)-1-oxa-8-azaspiro[4.5]decan-3-yl)methyl)-7-oxo-5,7-dihydro-2H,6H-spiro[furo[2,3-f]isoindolc-3,4′-pipcridin]-6-yl)pipcridinc-2,6-dione]	50 to 75	< 1	< 1			25 to 50	
COc1cc(N2CC3(CC(CN4CCC5(CC4)COc4c5ccc5c4CN(C4CCC(=O)NC4=O)C5=O)C3)C2)c(F)cc1[C@@H]1c2ccc(O)cc2CC[C@@H]1c1ccccc1 (stereo partly drawn) [Compound A184, (S)-3-(1′-((2-(2-fluoro-4-((1S, 2S)-6-hydroxy-2-phenyl-1,2,3,4-tetrahydronaphthalen-1-yl)-5-methoxyphenyl)-2-aza-spiro[3.3]heptan-6-yl)methyl)-6-oxo-6,8-dihydro-2H,7H-spiro[furo[2,3-e]isoindole-3,4′-piperidin]-7-yl)piperidine-2,6-dione]		< 1					
O=C1CC[C@H](N2Cc3cc4c(cc3C2=O)OCC42CCN(CC3CCN(c4ccc([C@@H]5c6ccc(O)cc6CC[C@@H]5c5ccccc5)cc4)CC3)CC2)C(=O)N1 [Compound A186, (S)-3-(1′-((1-(4-((1R,2S)-6-hydroxy-2-phenyl-1,2,3,4-tetra-hydronaphthalen-1-yl)phenyl)-piperidin-4-yl)methyl)-7-oxo-5,7-dihydro-2H,6H-spiro[furo [2,3-f]isoindole-3,4′-piperidin]-6-yl)piperidine-2,6-dione]	50 to 75	< 1					
COc1cc(N2CCC3(CC2)CC(CN2CCC4(CC2)COc2nc(C(=O)N[C@H]5CCC(=O)NC5=O)ccc24)C3)c(F)cc1[C@@H]1c2ccc(O)cc2CC[C@@H]1c1ccccc1 [Compound A190, N-((S)-2,6-dioxopiperidin-3-yl)-1′-((7-(2-fluoro-4-((1S,2S)-6-hydroxy-2-phenyl-1,2,3,4-tetrahydronaphthalen-1-yl)-5-methoxyphenyl)-7-azaspiro [3.5]nonan-2-yl)methyl)-2H-spiro[furo[2,3-b]pyridine-3,4′-piperidine]-6-carboxamide]	50 to 75	< 1					
